Source: the supplement of paper PMC10307832

Legend:
Assay in all cases: relative viability (nuclei count vs DMSO), 5 days (fraction); higher = more cells survive
Motesanib + Trametinib = compound: CC1(C)CNc2cc(NC(=O)c3cccnc3NCc3ccncc3)ccc21 [Motesanib] + CC(=O)Nc1cccc(-n2c(=O)n(C3CC3)c(=O)c3c(Nc4ccc(I)cc4F)n(C)c(=O)c(C)c32)c1 [Trametinib] (partner 0.02 µM)
Procedure, shortened: (§1)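 Relative viability divides the nuclei count in treated wells by that in vehicle wells. Lung cancer cell lines were seeded in 1536-well plates, dosed by pin tool the next day, and fixed and stained after 5 days in one step with final 0.05% Triton X-100, 1% formaldehyde and 1 ug/ml Hoechst. Dosing was a single drug or a fixed anchor-drug dose plus five library-drug doses (not always all listed) in √10 steps, and values are medians of duplicate plates imaged at 4×.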

Motesanib + Pictilisib = compound: CC1(C)CNc2cc(NC(=O)c3cccnc3NCc3ccncc3)ccc21 [Motesanib] + CS(=O)(=O)N1CCN(Cc2cc3nc(-c4cccc5[nH]ncc45)nc(N4CCOCC4)c3s2)CC1 [Pictilisib] (partner 1 µM)
Procedure, shortened: as §1

Motesanib + AZD7762 = compound: CC1(C)CNc2cc(NC(=O)c3cccnc3NCc3ccncc3)ccc21 [Motesanib] + NC(=O)Nc1cc(-c2cccc(F)c2)sc1C(=O)N[C@H]1CCCNC1 [AZD7762] (partner 0.2 µM)
Procedure, shortened: as §1

[1] = compound: C[C@@]1(C(=O)Nc2ccc(F)nc2)CCCN1c1nc(Nc2cc(C3CC3)n[nH]2)c2cccn2n1 + N=C(N)NC(=N)NCCc1ccccc1 [Phenformin] (partner 250 µM)
Procedure, shortened: as §1

| Cell Line | relative viability (Motesanib + Trametinib; first compound 0.01 µM) | relative viability (Motesanib + Trametinib; first compound 0.03162 µM) | relative viability (Motesanib + Trametinib; first compound 0.1 µM) | relative viability (Motesanib + Trametinib; first compound 0.3162 µM) | relative viability (Motesanib + Trametinib; first compound 1 µM) | relative viability (Motesanib + Pictilisib; first compound 0.01 µM) | relative viability (Motesanib + Pictilisib; first compound 0.03162 µM) | relative viability (Motesanib + Pictilisib; first compound 0.1 µM) | relative viability (Motesanib + Pictilisib; first compound 0.3162 µM) | relative viability (Motesanib + Pictilisib; first compound 1 µM) | relative viability (Motesanib + AZD7762; first compound 0.01 µM) | relative viability (Motesanib + AZD7762; first compound 0.03162 µM) | relative viability (Motesanib + AZD7762; first compound 0.1 µM) | relative viability (Motesanib + AZD7762; first compound 0.3162 µM) | relative viability (Motesanib + AZD7762; first compound 1 µM) | relative viability ([1]; first compound 0.04 µM) | relative viability ([1]; first compound 0.1265 µM) | relative viability ([1]; first compound 0.4 µM) | relative viability ([1]; first compound 1.265 µM) |
| --- | --- | --- | --- | --- | --- | --- | --- | --- | --- | --- | --- | --- | --- | --- | --- | --- | --- | --- | --- |
| NCI-H1915 | 0.209 | 0.338 | 0.318 | 0.288 | 0.365 | 0.933 | 0.984 | 0.657 | 0.994 | 1.06 | 0.676 | 0.66 | 0.747 | 0.711 | 0.755 | 0.372 | 0.381 | 0.378 | 0.347 |
| NCI-H1793 | 0.375 | 0.362 | 0.513 | 0.409 | 0.523 | 0.364 | 0.282 | 0.301 | 0.34 | 0.469 | 0.41 | 0.243 | 0.605 | 0.514 | 0.413 | 0.322 | 0.286 | – | 0.306 |
| RERF-LC-KJ | 0.88 | 0.875 | 0.805 | 0.845 | 0.909 | 0.507 | 0.63 | 0.621 | 0.613 | 0.61 | 0.9 | 0.873 | 1.06 | 1.03 | 0.813 | 0.315 | 0.348 | 0.322 | 0.273 |
| LXF-289 | 0.624 | 0.684 | 0.689 | 0.728 | 0.704 | 0.776 | 0.811 | 0.774 | 0.806 | 0.835 | 1.07 | 1.06 | 1.14 | 1.22 | 1.16 | 0.528 | 0.472 | 0.484 | 0.48 |
| PC-14 | 0.809 | 0.8 | 0.817 | 0.79 | 0.93 | 0.729 | 0.695 | 0.84 | 0.72 | 0.858 | 0.306 | 0.296 | 0.286 | 0.41 | 0.329 | 0.708 | – | 0.517 | 0.523 |
| NCI-H650 | 0.916 | 1.07 | 0.946 | 1.02 | 1.06 | 0.832 | 0.757 | 0.875 | 0.992 | 0.854 | 1.05 | 1.09 | 1.07 | 0.965 | 1 | 0.452 | 0.405 | 0.406 | 0.316 |
| NCI-H1666 | 0.736 | 0.904 | 0.905 | 0.858 | 0.838 | 0.466 | 0.5 | 0.416 | 0.463 | 0.49 | 0.809 | 0.927 | 1.02 | 0.898 | 0.909 | 0.554 | 0.529 | 0.635 | 0.487 |
| NCI-H2085 | 0.513 | 0.537 | 0.521 | 0.535 | 0.526 | 0.377 | 0.447 | 0.405 | 0.509 | 0.468 | 1.02 | 0.933 | 1.14 | 0.953 | 0.987 | 0.815 | 0.631 | 0.607 | 0.416 |
| NCI-H1734 | 0.6 | 0.625 | 0.644 | 0.676 | 0.723 | 0.446 | 0.496 | 0.461 | 0.479 | 0.48 | 0.548 | 0.648 | 0.584 | 0.499 | 0.457 | 0.323 | 0.272 | 0.278 | 0.281 |
| NCI-H2126 | 0.58 | 0.579 | 0.579 | 0.543 | 0.547 | 0.531 | 0.539 | 0.476 | 0.553 | 0.508 | 1.04 | 1.05 | 0.999 | 1.03 | 1.09 | 0.459 | 0.293 | 0.314 | 0.293 |
| EMC-BAC-2 | 0.756 | 0.909 | 0.861 | 0.797 | 0.948 | 0.582 | 0.564 | 0.537 | 0.542 | 0.6 | 1.07 | 1.1 | 1.09 | 1.2 | 1.04 | 0.472 | 0.437 | 0.399 | 0.313 |
| NCI-H1993 | 0.598 | 0.566 | 0.49 | 0.718 | 0.5 | 0.676 | 0.917 | 0.899 | 0.767 | 0.805 | 0.788 | 0.725 | 0.595 | 0.676 | 0.863 | 0.495 | 0.657 | 0.541 | 0.55 |
| NCI-H647 | 0.452 | 0.533 | 0.42 | 0.427 | 0.491 | – | 0.394 | 0.408 | 0.333 | 0.442 | 0.493 | 0.464 | 0.441 | 0.621 | 0.525 | 0.651 | 0.488 | 0.346 | 0.458 |
| NCI-H1792 | 0.511 | 0.37 | 0.43 | 0.528 | 0.442 | 0.296 | 0.231 | 0.294 | 0.297 | 0.309 | 0.621 | 0.706 | 0.92 | 0.635 | 0.71 | 0.145 | 0.0792 | 0.208 | 0.189 |
| ChaGo-K-1 | 0.894 | 0.889 | 0.91 | 0.942 | 0.95 | – | 0.535 | 0.532 | 0.638 | 0.757 | 0.89 | 0.812 | 0.804 | 0.836 | 0.795 | 0.403 | 0.283 | 0.296 | 0.4 |
